# What was measured:
# JAK2/JAK2 [1] = assay: TPO-stimulated pSTAT3/STAT5 in platelets of human whole blood; assay type: cell-based
# Protocol: Stimulation was terminated by adding Lyse/Fix buffer. Staining with BUV786 mouse anti-human CD61 antibody (744384; BD Biosciences) was carried out, followed by washing, permeabilization and staining with PE mouse anti-human STAT3 antibody (651004; BD Biosciences) and APC mouse anti-human STAT5 antibody (562076; BD Biosciences), as described above. The expression of p-STAT3 and STAT5 was quantified by the MFI after the number of CD61-positive platelets was optimized.
# JAK1/JAK3 [2] = assay: IL-2-stimulated pSTAT5 in human whole blood; assay type: cell-based
# Protocol: With respect to IL-2-stimulated JAK1/3 activation in human whole blood cells, whole blood (50 μL) was preincubated with compounds for 30 min and then stimulated with IL-2 (20 ng/mL) for 15 min.
# (§1) The stimulations stated above were terminated with prewarmed Lyse/Fix Buffer (558,049; BD Biosciences, San Jose, CA, USA) for 10 min. Cells were stained with an anti-cluster of differentiation (CD)3 fluorescein isothiocyanate (FITC) antibody (required for PBMCs but not for the other cell types), washed, and permeabilized on ice using Perm III Buffer (558,050; BD Biosciences) prior to staining with an Alexa Fluor 647 anti-phosphorylated (p)STAT5 (pY694) antibody for 30 min and analyzed by flow cytometry. Phosphorylation of STAT5 was quantified by the median fluorescence intensity (MFI) after gating on the CD3-positive population.
# TYK2/JAK1 [3] = assay: IFNα HEK293 (HEK-Blue IFN-α/β) reporter gene assay; assay type: cell-based, human
# Protocol: HEK-Blue™ IFN-α/β cells were used to determine the activity of QL-1200186. After 24 h of incubation with QL-1200186, HEK-Blue™ IFN-α/β cells (Invivogen; NKB-IFNAB) were stimulated with human IFNα (200 U/mL; catalog number: 11200–2; PBL Assay Science; Piscataway, NJ, USA) for 6 h. Stimulation of HEK-Blue IFN-α/β cells with human IFNα activates the JAK/STAT/ISGF3 pathway and subsequently induces the production of SEAP. Levels of SEAP in the supernatant were readily assessable using QUANTI-Blue™ Solution (InvivoGen, San Diego, CA, USA).
# TYK2/JAK1 [4] = assay: IL-23 HEK293 reporter assay; assay type: cell-based, human
# TYK2/JAK1 [5] = assay: IFNα-stimulated pSTAT5 in human PBMC (CD3+), FACS; assay type: cell-based
# Protocol: With regard to IFNα-stimulated phosphorylation of STAT5 in human peripheral blood mononuclear cells (PBMCs), after incubation with QL-1200186 for 1 h, human PBMCs were stimulated with recombinant human IFNα (1000 U/mL; 11200–2; PBL Assay Science) for 30 min.
# as §1
# TYK2/JAK1 [6] = assay: IL-23-induced pSTAT3 in human Th17 cells; assay type: cell-based
# Protocol: Human naïve CD4^+ T cells were separated using a human naïve CD4^+ T-cell isolation kit (StemCell, #17,852), and then cells were stimulated with anti-CD3 monoclonal antibody and anti-CD28 monoclonal antibody for 7–10 days under the following Th17-skewing treatments: IL-6, IL-23, IL-1β and transforming growth factor-β. Half of the medium was replaced with fresh medium containing a stimulant to induce differentiation every other day. Th17 cells were incubated overnight at 37 °C for deactivation. Cells were reinoculated on 96-well plates and cocultured with gradient-diluted QL-1200186 for 1 h and then stimulated with recombinant human IL-23 (ACRO: #IL-B-H52 WS) for 0.5 h. Cells were collected, and phosphorylation of STAT3 was quantified according to the MFI.
# TYK2/JAK2 = assay: IL-12/IL-18-induced IFNγ production in NK-92 cells, ELISA; assay type: cell-based, human
# Protocol: The inhibitory effect of QL-1200186 on IL-12/IL-18-induced IFNγ production in NK cells or human whole blood was determined by enzyme-linked immunosorbent assay (ELISA). NK92 cells were stimulated with recombinant human IL-12 (2 ng/mL; 200–12; PeproTech, Cranbury, NJ, USA) and recombinant human IL-18 (5 ng/mL; 9124-IL-050/CF; R&D Systems, Minneapolis, MN, USA) with or without QL-1200186 for 24 h at 37 °C. For human whole blood cells, whole blood (200 μL) was preincubated with the compound for 1 h and then stimulated with recombinant human IL-12 (2 ng/mL) or recombinant human IL-18 (10 ng/mL) for 24 h. After centrifugation, the supernatant was collected, and IFNγ production in the supernatant was measured with human IFNγ ELISA kits according to the manufacturer’s instructions (Biolegend, 430,104).
# TYK2/JAK1 [7] = assay: IFNα-induced pSTAT1 in CD3+ T cells of human PBMCs; assay type: cell-based
# Protocol: (§2) The reaction was terminated by collecting cells for surface staining. Cells were stained with anti-CD3 FITC (300406; Biolegend, San Diego, CA, USA), anti-CD19 APC (555415; BD Biosciences) or aqua fluorescent reactive dye BV421 (L34966A; Invitrogen, Carlsbad, CA, USA) antibodies for 20 min. After washing, fixation buffer (557870; BD Biosciences) was added and incubated for 10 min. Cells were washed and permeabilized on ice using Perm III Buffer (558050; BD Biosciences). Cells were stained with PE anti-PSTAT1 antibody (562069; BD Biosciences) for 30 min and analyzed by flow cytometry.
# TYK2/JAK1 [8] = assay: IFNα-induced pSTAT1 in CD19+ B cells of human PBMCs; assay type: cell-based
# Protocol: as §2
# JAK1/JAK3 [9] = assay: IL-2-stimulated pSTAT5 in human PBMC; assay type: cell-based; settings: @10μM
# Protocol: With regard to IL-2-stimulated JAK1/3 activation in human PBMCs, after 1 h of incubation with QL-1200186, human PBMCs were stimulated with human IL-2 (20 ng/mL; C013; Novoprotein) for 20 min.
# as §1
# JAK2/JAK2 [10] = assay: GM-CSF-stimulated pSTAT5 in U937 cells; assay type: cell-based, human; settings: @10μM
# Protocol: With respect to GM-CSF-stimulated JAK2 activation in U937 cells (Cobioer Biosciences, CBP60277), after 1 h of treatment with QL-1200186, U937 cells were stimulated with GM-CSF (20 ng/mL; C003; Novoprotein, Suzhou, China) for 15 min.
# as §1
Compound,activity in thrombopoietin (TPO)-induced JAK2/JAK2 signaling (JAK2/JAK2 [1]; human whole blood),activity in IL-2-mediated JAK1/JAK3 signaling (JAK1/JAK3 [2]),IC50 (TYK2/JAK1 [3]) [nM],IC50 (TYK2/JAK1 [4]) [nM],IC50 (TYK2/JAK1 [5]) [nM],IC50 (TYK2/JAK1 [6]) [nM],IC50 (TYK2/JAK2) [nM],IC50 (TYK2/JAK1 [7]) [nM],IC50 (TYK2/JAK1 [8]) [nM],IL-2- pSTAT5 in PBMC (JAK1/JAK3) inhibition (JAK1/JAK3 [9]) [% inhibition @10μM],GM-CSF-pSTAT5 in U937 (JAK2/JAK2) inhibition (JAK2/JAK2 [10]) [% inhibition @10μM],TPO-pSTAT3/STAT5 in human whole blood (JAK2/JAK2) inhibition (JAK2/JAK2 [1]; @10μM)
"CNc1cc(Nc2cccn(-c3ccccn3)c2=O)nc2c(C(=O)N[C@@H]3CC[C@H]3OC)cnn12 [NDI-034858, reference compound]",no activity,no activity,–,–,–,–,–,–,–,–,–,–
"deucravacitinib [BMS-986165, reference compound]",–,slight inhibitory effect,6.33,6.41,19,6,38.8,7.8,6.29,~40,~10,no inhibition @10μM

# Reference: article PMC10578023 (Cell Communication and Signaling : CCS, 2023)
